Measured values from patent publication US11224565B2, “N-acyldipeptide derivatives and their uses” (NeoStrata Company, Inc., priority 2011, dated 2022).
Peptide text beside a SMILES is read from it.

Legend:
Format in all cases: in vivo, human
Details in all cases: efficacy grade
Disturbed keratinization = experiment: Summary of test results in volunteer subjects: disturbed keratinization
Description: (§1) In one embodiment, a composition for topical application to test its therapeutic effect was formulated by dissolving a bioactive dipeptide derivative of the present invention in a solution prepared from 40 parts water, 40 parts ethanol and 20 parts propylene glycol by volume (WEP442). In another embodiment, a composition was formulated by dissolving a bioactive dipeptide derivative of the present invention in a non-aqueous solution prepared from 80 parts ethanol and 20 parts propylene glycol by volume (EP82). In yet another embodiment, a composition was formulated first by dissolving a bioactive dipeptide derivative of the present invention in a solution prepared from 80 parts water and 20 parts propylene glycol by volume (WP82), and the solution thus prepared was mixed with an oil-in-water emulsion or cream. In another embodiment, the volunteer subject topically applied the test compositions containing N-acyldipeptide derivatives of the present invention on involved skin or lesions once or twice daily for several weeks or until the involved lesions completely cleared and clinically changed to normal skin. As a control study, the subject also topically applied a vehicle control composition on the involved skin or lesions twice daily for the same period. In yet another embodiment, the volunteer subject topically applied once or twice daily the test compositions containing N-acyldipeptide derivatives of the present invention on the skin site above arthritic joints or painful muscles to provide therapeutic effects for the systemic disorders via topical administration. Some test results are summarized as follows. DK: Disturbed keratinization

[1] = test system: Aging related changes of skin, nail and hair; experiment: Summary of test results in volunteer subjects: aging related changes
Description: as §1, with “AG: Aging related changes of skin, nail and hair” for “DK: Disturbed keratinization”

[2] = test system: Deranged immune disorders and inflammation; experiment: Summary of test results in volunteer subjects: deranged immune disorders and inflammation
Description: as §1, with “DI: Deranged immune disorders and inflammation” for “DK: Disturbed keratinization”

Nerve disorders = experiment: Summary of test results in volunteer subjects: nerve disorders
Description: as §1, with “ND: Nerve disorders” for “DK: Disturbed keratinization”

Molecule	DK (Disturbed keratinization)	AG [1]	DI [2]	ND (Nerve disorders)
CC(=O)N[C@@H](CO)C(=O)NCC(N)=O [N-Ac-L-Ser-Gly-NH2] (Ac-Ser-Gly-NH2)	2+ (2+: 50% Efficacy)	2+ (2+: 50% Efficacy)	2+ (2+: 50% Efficacy)	2+ (2+: 50% Efficacy)
CC(=O)N[C@H](C(=O)N[C@@H](C)C(=O)O)C(C)C [N-Ac-L-Val-L-Ala-OH] (Ac-Val-Ala-OH)	2+ (2+: 50% Efficacy)	2+ (2+: 50% Efficacy)	3+ (3+: 75% Efficacy)	4+ (4+: 95-100% Efficacy)
CC[C@H](C)[C@H](NC(=O)[C@@H](NC(C)=O)[C@@H](C)CC)C(N)=O [N-Ac-L-Ile-L-Ile-NH2] (Ac-Ile-Ile-NH2)	3+ (3+: 75% Efficacy)	2+ (2+: 50% Efficacy)	3+ (3+: 75% Efficacy)	4+ (4+: 95-100% Efficacy)
CC(=O)N[C@@H](CC(C)C)C(=O)N[C@@H](C)C(=O)O [N-Ac-L-Leu-L-Ala-OH] (Ac-Leu-Ala-OH)	2+ (2+: 50% Efficacy)	2+ (2+: 50% Efficacy)	3+ (3+: 75% Efficacy)	3+ (3+: 75% Efficacy)
CC(=O)NCCC(=O)N[C@@H](Cc1c[nH]cn1)C(N)=O [N-Ac-βAla-L-His-NH2]	2+ (2+: 50% Efficacy)	2+ (2+: 50% Efficacy)	2+ (2+: 50% Efficacy)	2+ (2+: 50% Efficacy)
CC(=O)N[C@@H](Cc1ccccc1)C(=O)N[C@@H](Cc1ccccc1)C(N)=O [N-Ac-L-Phe-L-Phe-NH2] (Ac-Phe-Phe-NH2)	2+ (2+: 50% Efficacy)	2+ (2+: 50% Efficacy)	2+ (2+: 50% Efficacy)	2+ (2+: 50% Efficacy)
CC[C@H](C)[C@H](NC(C)=O)C(=O)N[C@@H](C)C(N)=O [N-Ac-L-Ile-L-Ala-NH2] (Ac-Ile-Ala-NH2)	2+ (2+: 50% Efficacy)	2+ (2+: 50% Efficacy)	4+ (4+: 95-100% Efficacy)	4+ (4+: 95-100% Efficacy)
CC(=O)N[C@@H](CC(N)=O)C(=O)NCC(N)=O [N-Ac-L-Asn-Gly-NH2] (Ac-Asn-Gly-NH2)	2+ (2+: 50% Efficacy)	2+ (2+: 50% Efficacy)	2+ (2+: 50% Efficacy)	2+ (2+: 50% Efficacy)
CC(=O)N[C@@H](Cc1ccc(O)cc1)C(=O)NCC(N)=O [N-Ac-L-Tyr-Gly-NH2]	2+ (2+: 50% Efficacy)	2+ (2+: 50% Efficacy)	2+ (2+: 50% Efficacy)	2+ (2+: 50% Efficacy)
CC(=O)N[C@@H](CS)C(=O)NCC(N)=O [N-Ac-L-Cys-Gly-NH2]	2+ (2+: 50% Efficacy)	2+ (2+: 50% Efficacy)	2+ (2+: 50% Efficacy)	2+ (2+: 50% Efficacy)
CC(=O)Nc1ccccc1C(=O)NCC(N)=O [N-Ac-Abz-Gly-NH2]	2+ (2+: 50% Efficacy)	2+ (2+: 50% Efficacy)	3+ (3+: 75% Efficacy)	3+ (3+: 75% Efficacy)
CC[C@H](C)[C@H](NC(C)=O)C(=O)N[C@@H](C)C(=O)O [N-Ac-L-Ile-L-Ala-OH] (Ac-Ile-Ala-OH)	2+ (2+: 50% Efficacy)	2+ (2+: 50% Efficacy)	2+ (2+: 50% Efficacy)	2+ (2+: 50% Efficacy)
N-Ac-L-Tyr-L-Hpg-NH2	2+ (2+: 50% Efficacy)	2+ (2+: 50% Efficacy)	2+ (2+: 50% Efficacy)	2+ (2+: 50% Efficacy)
CC(=O)N[C@@H](Cc1c[nH]c2ccccc12)C(=O)N[C@@H](Cc1c[nH]c2ccccc12)C(N)=O [N-Ac-L-Trp-L-Trp-NH2] (Ac-Trp-Trp-NH2)	2+ (2+: 50% Efficacy)	2+ (2+: 50% Efficacy)	2+ (2+: 50% Efficacy)	2+ (2+: 50% Efficacy)
CC[C@H](C)[C@H](NC(C)=O)C(=O)NCC(N)=O [N-Ac-L-Ile-Gly-NH2] (Ac-Ile-Gly-NH2)	3+ (3+: 75% Efficacy)	3+ (3+: 75% Efficacy)	4+ (4+: 95-100% Efficacy)	4+ (4+: 95-100% Efficacy)
CCC(=O)N[C@@H](CC(C)C)C(=O)NCC(=O)O [N-Pr-L-Leu-Gly-OH] (HELM PEPTIDE1{[CCC(=O)[*:2]].L.G}$$$$V2.0)	2+ (2+: 50% Efficacy)	2+ (2+: 50% Efficacy)	3+ (3+: 75% Efficacy)	3+ (3+: 75% Efficacy)
N,N′-diAc-βAla-L-His-NH2	2+ (2+: 50% Efficacy)	2+ (2+: 50% Efficacy)	2+ (2+: 50% Efficacy)	2+ (2+: 50% Efficacy)
CC(=O)N[C@@H](CC(C)C)C(=O)N[C@@H](C)C(N)=O [N-Ac-L-Leu-L-Ala-NH2] (Ac-Leu-Ala-NH2)	3+ (3+: 75% Efficacy)	3+ (3+: 75% Efficacy)	4+ (4+: 95-100% Efficacy)	4+ (4+: 95-100% Efficacy)
CC(=O)NCC(=O)N1CCC[C@H]1C(N)=O [N-Ac-Gly-L-Pro-NH2] (Ac-Gly-Pro-NH2)	2+ (2+: 50% Efficacy)	2+ (2+: 50% Efficacy)	2+ (2+: 50% Efficacy)	2+ (2+: 50% Efficacy)
CC(=O)NCC(=O)NCC(N)=O [N-Ac-Gly-Gly-NH2]	2+ (2+: 50% Efficacy)	2+ (2+: 50% Efficacy)	2+ (2+: 50% Efficacy)	2+ (2+: 50% Efficacy)
CC(=O)N[C@H](C(=O)NCC(=O)O)C(C)C [N-Ac-L-Val-Gly-OH] (Ac-Val-Gly-OH)	2+ (2+: 50% Efficacy)	2+ (2+: 50% Efficacy)	3+ (3+: 75% Efficacy)	4+ (4+: 95-100% Efficacy)
CCC(=O)N[C@H](C(=O)N[C@@H](C)C(=O)O)C(C)C [N-Pr-L-Val-L-Ala-OH] (HELM PEPTIDE1{[CCC(=O)[*:2]].V.A}$$$$V2.0)	2+ (2+: 50% Efficacy)	2+ (2+: 50% Efficacy)	3+ (3+: 75% Efficacy)	4+ (4+: 95-100% Efficacy)
CC(=O)N[C@@H](CC(C)C)C(=O)N[C@@H](Cc1ccc(O)cc1)C(N)=O [N-Ac-L-Leu-L-Tyr-NH2] (Ac-Leu-Tyr-NH2)	2+ (2+: 50% Efficacy)	2+ (2+: 50% Efficacy)	2+ (2+: 50% Efficacy)	2+ (2+: 50% Efficacy)
CC(=O)N[C@@H](CS)C(=O)N[C@@H](CS)C(=O)O [N-Ac-L-Cys-L-Cys-OH] (Ac-Cys-Cys-OH)	2+ (2+: 50% Efficacy)	3+ (3+: 75% Efficacy)	2+ (2+: 50% Efficacy)	2+ (2+: 50% Efficacy)
